The pIC50 is the negative decadic logarithm of the IC50, by convention in mol/L. Lower therefore signals a large IC50.

pIC50: −log10 of the molar value.

One assay deals with PIK3CD (Human) (UniProt O00329). Description: Assessment of PIK3CD Kinase Activity.
The target of the next assay is PIK3CG (human) (UniProt P48736). Description: Assessment of PIK3CG Kinase Activity.
The target of another assay is PIK3CB (Human) (UniProt P42338). Description: Assessment of PIK3CB Kinase Activity.
Chain of PIK3CB (Human) (P42338 whole entry, looked up): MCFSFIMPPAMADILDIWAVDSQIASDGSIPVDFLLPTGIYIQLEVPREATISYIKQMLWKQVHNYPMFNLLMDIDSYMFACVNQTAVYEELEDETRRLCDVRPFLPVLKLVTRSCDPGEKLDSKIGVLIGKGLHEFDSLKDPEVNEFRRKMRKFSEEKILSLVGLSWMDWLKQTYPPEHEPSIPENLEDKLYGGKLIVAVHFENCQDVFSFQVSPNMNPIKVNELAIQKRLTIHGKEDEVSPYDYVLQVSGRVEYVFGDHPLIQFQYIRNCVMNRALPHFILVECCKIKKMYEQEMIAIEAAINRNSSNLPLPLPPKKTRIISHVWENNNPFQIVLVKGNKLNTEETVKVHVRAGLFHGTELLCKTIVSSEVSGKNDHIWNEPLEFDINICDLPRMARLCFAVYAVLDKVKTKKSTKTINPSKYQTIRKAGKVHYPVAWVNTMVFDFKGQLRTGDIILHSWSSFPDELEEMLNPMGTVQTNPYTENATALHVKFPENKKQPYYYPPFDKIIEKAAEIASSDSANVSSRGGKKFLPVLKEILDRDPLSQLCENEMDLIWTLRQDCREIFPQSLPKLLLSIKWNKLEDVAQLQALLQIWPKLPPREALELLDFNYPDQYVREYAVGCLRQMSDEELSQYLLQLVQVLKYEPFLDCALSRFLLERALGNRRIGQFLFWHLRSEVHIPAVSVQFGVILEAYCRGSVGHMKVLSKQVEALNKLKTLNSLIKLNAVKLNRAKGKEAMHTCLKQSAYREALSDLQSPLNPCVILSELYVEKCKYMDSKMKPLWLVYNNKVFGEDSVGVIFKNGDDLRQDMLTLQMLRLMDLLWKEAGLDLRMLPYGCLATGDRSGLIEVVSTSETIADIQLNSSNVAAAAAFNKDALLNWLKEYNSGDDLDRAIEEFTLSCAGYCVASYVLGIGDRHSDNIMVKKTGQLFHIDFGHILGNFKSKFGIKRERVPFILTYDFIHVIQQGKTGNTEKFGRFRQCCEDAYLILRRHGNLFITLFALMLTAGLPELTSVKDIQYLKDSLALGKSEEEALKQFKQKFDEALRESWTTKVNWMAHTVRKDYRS

Chain of PIK3CD (Human) (O00329 whole entry, looked up): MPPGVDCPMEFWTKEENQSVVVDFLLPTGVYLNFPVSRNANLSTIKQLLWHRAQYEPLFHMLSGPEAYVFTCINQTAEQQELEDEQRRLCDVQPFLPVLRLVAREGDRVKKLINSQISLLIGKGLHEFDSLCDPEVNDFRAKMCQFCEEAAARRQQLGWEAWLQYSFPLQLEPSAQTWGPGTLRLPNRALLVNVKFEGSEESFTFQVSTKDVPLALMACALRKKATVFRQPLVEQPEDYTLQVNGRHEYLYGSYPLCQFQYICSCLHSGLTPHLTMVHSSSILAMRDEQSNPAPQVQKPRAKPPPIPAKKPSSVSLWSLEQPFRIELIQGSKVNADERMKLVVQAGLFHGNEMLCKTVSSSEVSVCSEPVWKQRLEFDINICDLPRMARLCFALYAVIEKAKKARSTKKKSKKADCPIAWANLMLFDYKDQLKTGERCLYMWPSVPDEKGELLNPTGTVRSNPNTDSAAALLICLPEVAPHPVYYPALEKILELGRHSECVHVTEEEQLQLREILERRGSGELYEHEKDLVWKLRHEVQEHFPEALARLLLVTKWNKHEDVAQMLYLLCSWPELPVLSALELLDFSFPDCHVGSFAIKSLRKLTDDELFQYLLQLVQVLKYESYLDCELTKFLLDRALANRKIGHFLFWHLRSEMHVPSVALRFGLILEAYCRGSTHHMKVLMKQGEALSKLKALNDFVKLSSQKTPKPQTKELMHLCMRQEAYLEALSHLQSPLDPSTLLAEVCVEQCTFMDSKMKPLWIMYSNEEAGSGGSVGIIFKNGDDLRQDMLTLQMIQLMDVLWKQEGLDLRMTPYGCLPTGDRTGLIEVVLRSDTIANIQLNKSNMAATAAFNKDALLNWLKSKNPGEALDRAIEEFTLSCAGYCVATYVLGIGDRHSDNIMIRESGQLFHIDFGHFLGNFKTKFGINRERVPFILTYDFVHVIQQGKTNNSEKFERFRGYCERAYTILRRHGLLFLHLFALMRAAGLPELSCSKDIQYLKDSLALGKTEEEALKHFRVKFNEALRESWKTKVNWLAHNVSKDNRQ
Chain of PIK3CG (human) (P48736 whole entry, looked up): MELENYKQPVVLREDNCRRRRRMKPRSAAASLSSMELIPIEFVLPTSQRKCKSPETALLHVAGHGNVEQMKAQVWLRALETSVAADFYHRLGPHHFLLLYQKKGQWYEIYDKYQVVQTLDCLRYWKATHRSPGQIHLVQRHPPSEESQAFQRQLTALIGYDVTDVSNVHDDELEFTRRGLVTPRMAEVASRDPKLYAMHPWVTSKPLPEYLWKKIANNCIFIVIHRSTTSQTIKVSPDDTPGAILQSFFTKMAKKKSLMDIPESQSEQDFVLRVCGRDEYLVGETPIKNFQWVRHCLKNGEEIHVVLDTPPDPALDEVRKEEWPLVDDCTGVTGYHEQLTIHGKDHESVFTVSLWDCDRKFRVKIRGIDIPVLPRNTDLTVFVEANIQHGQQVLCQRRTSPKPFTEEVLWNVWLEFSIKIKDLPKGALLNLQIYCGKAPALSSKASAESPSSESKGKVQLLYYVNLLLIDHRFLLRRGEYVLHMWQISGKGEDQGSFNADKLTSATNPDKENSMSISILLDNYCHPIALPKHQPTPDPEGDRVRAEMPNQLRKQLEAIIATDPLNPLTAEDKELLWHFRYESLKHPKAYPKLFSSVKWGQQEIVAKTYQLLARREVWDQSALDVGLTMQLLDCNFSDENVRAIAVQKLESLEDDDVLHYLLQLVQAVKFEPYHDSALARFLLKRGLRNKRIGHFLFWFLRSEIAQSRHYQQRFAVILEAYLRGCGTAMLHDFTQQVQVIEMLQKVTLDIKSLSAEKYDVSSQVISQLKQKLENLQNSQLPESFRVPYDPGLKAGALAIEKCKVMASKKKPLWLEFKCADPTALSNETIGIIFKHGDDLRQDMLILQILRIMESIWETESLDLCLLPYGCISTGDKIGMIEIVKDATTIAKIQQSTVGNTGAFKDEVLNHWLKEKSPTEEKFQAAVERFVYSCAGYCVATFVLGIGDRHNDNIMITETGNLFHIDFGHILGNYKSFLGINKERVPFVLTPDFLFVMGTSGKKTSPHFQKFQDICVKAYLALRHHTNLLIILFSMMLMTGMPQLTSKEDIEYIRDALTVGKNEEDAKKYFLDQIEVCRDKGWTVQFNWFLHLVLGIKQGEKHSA

On to `C[C@H](Nc1ccnn2ccnc12)c1cc2cccc(-c3cnn(C)c3)c2c(=O)n1C1CC1`, for which the results for the pIC50 on PIK3CD (Human) and at PIK3CG (human) were over 7.00 and 6.00 to 7.00, respectively.
As to `CNc1nc(N[C@@H](C)c2cc3cccc(Cl)c3c(=O)n2-c2ccccc2)c2ncccc2n1`, the pIC50 against PIK3CD (Human) and against PIK3CG (human) was over 7.00 each time.
With `C[C@H](Nc1ccnc2ccnn12)c1cc2cccc(Cl)c2c(=O)n1C1CC1`, the pIC50 against PIK3CD (Human) is over 7.00; on PIK3CB (Human), 6.00 to 7.00; at PIK3CG (human), 6.00 to 7.00.
As for `C[C@H](Nc1ncnc2ccnn12)c1cc2cccc(Cl)c2c(=O)n1-c1ccccc1`, the pIC50 against PIK3CD (Human) is over 7.00; on PIK3CB (Human), 6.00 to 7.00; against PIK3CG (human) it was over 7.00.
As for `C[C@H](Nc1ccnc2ccnn12)c1cc2cccc(-c3cnn(C)c3)c2c(=O)n1-c1cccc(F)c1`, the pIC50 at PIK3CD (Human) was over 7.00; against PIK3CB (Human), under 5.00; against PIK3CG (human), 6.00 to 7.00.
As for `C[C@H](Nc1nc(N)nc2cccnc12)c1cc2cccc(-c3cnn(C)c3)c2c(=O)n1-c1ccccc1`, the negative logarithm of the IC50 (pIC50) against PIK3CD (Human) was over 7.00; at PIK3CB (Human) it was under 5.00; at PIK3CG (human), over 7.00.
In the case of `C[C@H](Nc1ncnc2cccnc12)c1cc2cccc(C(F)(F)F)c2c(=O)n1-c1cccc(F)c1`, the negative logarithm of the IC50 (pIC50) on PIK3CD (Human) and against PIK3CG (human) was over 7.00 each time.
In the case of `C[C@H](Nc1ccnn2ccnc12)c1cc2cccc(C(F)(F)F)c2c(=O)n1-c1ccccc1`, the results for the pIC50 on PIK3CD (Human), on PIK3CB (Human) and against PIK3CG (human) were over 7.00, 6.00 to 7.00 and over 7.00, respectively.
Consider `C[C@H](Nc1ccnc2ccnn12)c1cc2cccc(Cl)c2c(=O)n1-c1ccccc1`, for which the pIC50 was over 7.00 against PIK3CD (Human), 6.00 to 7.00 against PIK3CB (Human) and over 7.00 at PIK3CG (human).
On to `Cc1ncc(-c2cccc3cc([C@H](C)Nc4nc(N)nc5cccnc45)n(-c4cccc(F)c4)c(=O)c23)cn1`, for which the negative logarithm of the IC50 (pIC50) is over 7.00 against PIK3CD (Human), under 5.00 against PIK3CB (Human) and over 7.00 on PIK3CG (human).
With `C[C@H](Nc1nc(N)nc2cccnc12)c1cc2cccc(C(F)(F)F)c2c(=O)n1-c1ccccc1`, the results for the pIC50 against PIK3CD (Human), at PIK3CB (Human) and against PIK3CG (human) were over 7.00, 6.00 to 7.00 and over 7.00, respectively.
Take `C[C@H](Nc1ncnc2[nH]cc(F)c12)c1cc2cccc(C(F)(F)F)c2c(=O)n1-c1ccccc1`: the pIC50 at PIK3CD (Human) and against PIK3CG (human) was over 7.00 each time.
In the case of `COc1ncc(-c2cccc3cc([C@H](C)Nc4ncnc5cccnc45)n(-c4cccc(F)c4)c(=O)c23)cn1`, the values for the pIC50 at PIK3CD (Human), on PIK3CB (Human) and against PIK3CG (human) were over 7.00, under 5.00 and 6.00 to 7.00, respectively.
Take `C[C@H](Nc1nc(N)nc2cccnc12)c1cc2cccc(-c3ccnnc3)c2c(=O)n1-c1cccc(F)c1`: the values for the pIC50 against PIK3CD (Human), on PIK3CB (Human) and on PIK3CG (human) were over 7.00, under 5.00 and over 7.00, respectively.
For `C[C@H](Nc1ncnc2cccnc12)c1cc2cccc(-c3ccc(N)nc3)c2c(=O)n1-c1ccccc1`, the figures for the negative-log IC50 (pIC50) against PIK3CD (Human), at PIK3CB (Human) and on PIK3CG (human) were over 7.00, under 5.00 and over 7.00, respectively.
At PIK3CD (Human), `C[C@H](Nc1ccnc2ccnn12)c1cc2cccc(-c3cnn(C)c3)c2c(=O)n1C1CC1` showed a pIC50 of over 7.00.
For the compound `C[C@H](Nc1ccnn2ccnc12)c1cc2cccc(-c3cnn(C)c3)c2c(=O)n1-c1ccccc1`, the pIC50 on PIK3CD (Human) and at PIK3CG (human) was over 7.00 in each case.
`COc1ncc(-c2cccc3cc([C@H](C)Nc4ccnn5ccnc45)n(-c4ccccc4)c(=O)c23)cn1`: the pIC50 against PIK3CD (Human) is over 7.00; against PIK3CB (Human) it was under 5.00; against PIK3CG (human), 6.00 to 7.00.
For the compound `C[C@H](Nc1ncnc2[nH]cnc12)c1cc2cccc(C(F)(F)F)c2c(=O)n1-c1ccccc1`, the pIC50 is over 7.00 on PIK3CD (Human), 6.00 to 7.00 on PIK3CB (Human) and over 7.00 against PIK3CG (human).
`Cc1nn(C)cc1-c1cccc2cc([C@H](C)Nc3ncnc4cccnc34)n(-c3ccccc3)c(=O)c12`: the negative logarithm of the IC50 (pIC50) against PIK3CD (Human) was over 7.00; at PIK3CB (Human), under 5.00; against PIK3CG (human), over 7.00.
On to `C[C@H](Nc1ccnc2cccnc12)c1cc2cccc(Cl)c2c(=O)n1-c1ccccc1`, for which the pIC50 on PIK3CD (Human) is over 7.00; at PIK3CB (Human), 6.00 to 7.00; against PIK3CG (human), over 7.00.
For the compound `C[C@H](Nc1nc(N)ncc1C#N)c1cc2cccc(C(F)(F)F)c2c(=O)n1-c1ccccc1`, the values for the pIC50 against PIK3CD (Human), at PIK3CB (Human) and on PIK3CG (human) were over 7.00, 6.00 to 7.00 and over 7.00, respectively.
Regarding `C[C@H](Nc1nc(N)nc2[nH]cnc12)c1cc2cccc(C(F)(F)F)c2c(=O)n1-c1cccc(F)c1`, the values for the negative logarithm of the IC50 (pIC50) on PIK3CD (Human), against PIK3CB (Human) and against PIK3CG (human) were over 7.00, 6.00 to 7.00 and over 7.00, respectively.
In the case of `C[C@H](Nc1nc(N)nc2scnc12)c1cc2cccc(C(F)(F)F)c2c(=O)n1-c1ccccc1`, the pIC50 against PIK3CD (Human) and against PIK3CG (human) was over 7.00 each time.
For the compound `C[C@H](Nc1ccnn2ccnc12)c1cc2cccc(-c3cnn(C)c3)c2c(=O)n1-c1cccc(F)c1`, the negative-log IC50 (pIC50) on PIK3CD (Human) was over 7.00; at PIK3CB (Human), under 5.00; at PIK3CG (human) it was over 7.00.
Regarding `C[C@H](Nc1ccnc2cccnc12)c1cc2cccc(-c3cnn(C)c3)c2c(=O)n1-c1ccccc1`, the pIC50 against PIK3CD (Human) and against PIK3CG (human) was over 7.00 in each case.
Consider `C[C@H](Nc1ncnc2cccnc12)c1cc2cccc(C(F)(F)F)c2c(=O)n1-c1ccccc1`, for which the pIC50 is over 7.00 at PIK3CD (Human), 6.00 to 7.00 on PIK3CB (Human) and over 7.00 against PIK3CG (human).
For the compound `C[C@H](Nc1ncnc2cccnc12)c1cc2cccc(-c3cnn(C)c3)c2c(=O)n1-c1cccc(F)c1`, the pIC50 against PIK3CD (Human) was over 7.00; against PIK3CB (Human), under 5.00; against PIK3CG (human) it was over 7.00.
On to `C[C@H](Nc1ncnc2scnc12)c1cc2cccc(C(F)(F)F)c2c(=O)n1-c1cccc(F)c1`, for which the results for the pIC50 against PIK3CD (Human), at PIK3CB (Human) and against PIK3CG (human) were over 7.00, 6.00 to 7.00 and over 7.00, respectively.
For the compound `C[C@H](Nc1ncnn2ccnc12)c1cc2cccc(C(F)(F)F)c2c(=O)n1-c1ccccc1`, the pIC50 against PIK3CD (Human) was over 7.00; against PIK3CB (Human), 6.00 to 7.00; against PIK3CG (human) it was over 7.00.
Take `C[C@H](Nc1ncnn2ccnc12)c1cc2cccc(Cl)c2c(=O)n1-c1ccccc1`: the values for the pIC50 on PIK3CD (Human), against PIK3CB (Human) and on PIK3CG (human) were over 7.00, 6.00 to 7.00 and over 7.00, respectively.
With `C[C@H](Nc1ncnc2cccnc12)c1cc2ccc(F)cc2c(=O)n1-c1ccccc1`, the pIC50 against PIK3CD (Human) and on PIK3CG (human) was over 7.00 each time.
For `C[C@H](Nc1nc(N)nc2cccnc12)c1nc2cccc(-c3ccnnc3)c2c(=O)n1-c1ccccc1`, the pIC50 against PIK3CD (Human) was over 7.00; on PIK3CB (Human), under 5.00; at PIK3CG (human) it was over 7.00.
In the case of `C[C@H](Nc1ccnc2scnc12)c1cc2cccc(C(F)(F)F)c2c(=O)n1-c1ccccc1`, the pIC50 against PIK3CD (Human) is over 7.00; against PIK3CB (Human), 6.00 to 7.00; on PIK3CG (human), over 7.00.
On to `C[C@H](Nc1ncnc2cccnc12)c1cc2c(F)cccc2c(=O)n1-c1ccccc1`, for which the pIC50 against PIK3CD (Human) and at PIK3CG (human) was over 7.00 throughout.
`C[C@H](Nc1nc(N)nc2cccnc12)c1cc2cccc(-c3cnn(C)c3)c2c(=O)n1-c1cccc(F)c1`: the results for the pIC50 against PIK3CD (Human), on PIK3CB (Human) and against PIK3CG (human) were over 7.00, under 5.00 and over 7.00, respectively.
`C[C@H](Nc1nc(N)nc2cccnc12)c1cc2cccc(-c3cncnc3)c2c(=O)n1-c1ccccc1`: the pIC50 against PIK3CD (Human) and at PIK3CG (human) was over 7.00 in each case.
Regarding `C[C@H](Nc1ncnn2ccnc12)c1cc2cccc(Cl)c2c(=O)n1-c1cccc(F)c1`, the pIC50 on PIK3CD (Human) and at PIK3CG (human) was over 7.00 each time.
Regarding `C[C@H](Nc1ccnn2ccnc12)c1cc2cccc(Cl)c2c(=O)n1-c1cccc(F)c1`, the negative-log IC50 (pIC50) at PIK3CD (Human) was over 7.00; against PIK3CB (Human), 6.00 to 7.00; at PIK3CG (human), over 7.00.
As to `C[C@H](Nc1ncnc2cccnc12)c1cc2scc(Cl)c2c(=O)n1-c1ccccc1`, the negative logarithm of the IC50 (pIC50) was over 7.00 at PIK3CD (Human), 6.00 to 7.00 at PIK3CB (Human) and over 7.00 against PIK3CG (human).
With `C[C@H](Nc1ccnc2ccnn12)c1cc2cccc(C(F)(F)F)c2c(=O)n1-c1ccccc1`, the pIC50 was over 7.00 against PIK3CD (Human), 6.00 to 7.00 against PIK3CB (Human) and over 7.00 on PIK3CG (human).
For `C[C@H](Nc1ncnc2cccnc12)c1cc2cc(F)ccc2c(=O)n1-c1ccccc1`, the pIC50 at PIK3CD (Human) was 6.00 to 7.00; on PIK3CB (Human) it was under 5.00.
Regarding `C[C@H](Nc1nc(N)nc2cccnc12)c1cc2cccc(-c3ccnnc3)c2c(=O)n1-c1ccccc1`, the pIC50 against PIK3CD (Human) and against PIK3CG (human) was over 7.00 in each case.
For `C[C@H](Nc1ccnn2ccnc12)c1cc2cccc(Cl)c2c(=O)n1C1CC1`, the pIC50 against PIK3CD (Human) was over 7.00; on PIK3CB (Human) it was 6.00 to 7.00; at PIK3CG (human), 6.00 to 7.00.
As for `C[C@H](Nc1ncnc2cccnc12)c1cc2cccc(Cl)c2c(=O)n1-c1ccccc1`, the pIC50 at PIK3CD (Human) is over 7.00; at PIK3CB (Human), 6.00 to 7.00; against PIK3CG (human), over 7.00.
On to `C[C@H](Nc1ccnc2ccnn12)c1cc2cccc(Cl)c2c(=O)n1-c1cccc(F)c1`, for which the pIC50 against PIK3CD (Human) and against PIK3CG (human) was over 7.00 each time.
For the compound `C[C@H](Nc1ccnc2ccnn12)c1cc2scc(Cl)c2c(=O)n1-c1ccccc1`, the pIC50 against PIK3CD (Human) is over 7.00; on PIK3CB (Human), 6.00 to 7.00; against PIK3CG (human) it was over 7.00.
For the compound `C[C@H](Nc1ncnc2scnc12)c1cc2scc(C(F)(F)F)c2c(=O)n1-c1ccccc1`, the pIC50 is over 7.00 against PIK3CD (Human), 6.00 to 7.00 against PIK3CB (Human) and over 7.00 at PIK3CG (human).
Regarding `Cc1cccc2cc([C@H](C)Nc3ncnc4cccnc34)n(-c3cccc(F)c3)c(=O)c12`, the negative-log IC50 (pIC50) against PIK3CD (Human) and at PIK3CG (human) was over 7.00 each time.
As to `C[C@H](Nc1ccnc2ccnn12)c1cc2cccc(-c3cnn(C)c3)c2c(=O)n1-c1ccccc1`, the negative logarithm of the IC50 (pIC50) against PIK3CD (Human) and at PIK3CG (human) was over 7.00 throughout.
For `C[C@H](Nc1ccnn2ccnc12)c1cc2cccc(C(F)(F)F)c2c(=O)n1-c1cccc(F)c1`, the negative logarithm of the IC50 (pIC50) against PIK3CD (Human) and against PIK3CG (human) was over 7.00 in each case.
Regarding `C[C@H](Nc1ncnc2cccnc12)c1cc2cccc(-c3cnn(C)c3)c2c(=O)n1C1CC1`, the pIC50 at PIK3CD (Human) and against PIK3CG (human) was over 7.00 each time.
For the compound `C[C@H](Nc1ccnc2cccnc12)c1cc2cccc(Cl)c2c(=O)n1-c1cccc(F)c1`, the pIC50 on PIK3CD (Human) and against PIK3CG (human) was over 7.00 each time.

For the origin of these results see the Kinase Knowledgebase extract (Sharma et al. 2016).
